Data from patent publication US9238020B2, “Compositions comprising enzyme-cleavable phenol-modified tapentadol prodrug” (priority 2010, dated 2016).
Entries after “also recorded” stand apart in the source; their conditions may differ. Counter-ions that a name gives are not always drawn. Like-named read-outs stand apart in the source and are kept apart here.

Assays:
[1] = Oral administration of tapentadol prodrugs with or without co-dose of trypsin inhibitor Compound 109 to rats; format: in vivo, rat; details: by suppressing Cmax and AUC and/or delaying Tmax
Method: Saline solutions of Compound TP-1 (which can be prepared as described in the examples herein) were dosed at 39 μmol/kg (25 mg/kg) with or without a co-dose of 55 μmol/kg (30 mg/kg) Compound 109 (Catalog No. 3081, Tocris Bioscience, Ellisville, Mo., USA or Catalog No. WS38665, Waterstone Technology, Carmel, Ind., USA) as indicated in Table 3 via oral gavage into jugular vein-cannulated male Sprague Dawley rats (4 per groups) that had been fasted for 16-18 hr prior to oral dosing. At specified time points, blood samples were drawn, harvested for plasma via centrifugation at 5,400 rpm at 4° C. for 5 min, and 100 μl plasma transferred from each sample into a fresh tube containing 2 μl of 50% formic acid. The tubes were vortexed for 5-10 seconds, immediately placed in dry ice and then stored in a −80° C. freezer until analysis by HPLC/MS.
Table 3 and FIG. 5 provide tapentadol exposure results for rats administered with Compound TP-1 in the absence or presence of trypsin inhibitor.
Saline solutions of Compound TP-3 or Compound TP-4 (which can be prepared as described in the examples herein) were dosed as indicated in Table 9 and according to the procedures as described in Example 13. Sampling and analysis procedures were as described in Example 13. […]

[2] = test system: norepinephrine uptake into rat hypothalamus synaptosomes; assay: In vitro functional norepinephrine uptake assay; format: biochemical
Method: The general procedure follows the protocol described by S. Perovic and W. E. G. Muller, 1995, Arzneim-Forsch. Drug Res. 45, 1145-1148. More specifically, the assays included each of the compounds indicated in Table 13 and rat hypothalamus synaptosomes incubated with 0.2 μCi/mL [^3H] norepinephrine. For a control reaction, protriptyline was used. The reaction mixtures were incubated at 37° C. for 20 min, and the reaction product of [^3H] norepinephrine incorporation into the synaptosomes was measured by scintillation counting. IC50 values (concentration causing a half-maximal inhibition of control specific activity) were determined by non-linear regression fit using Hill plot software.

[3] = Plasma and cerebrospinal fluid penetration following IV administration to rats; format: in vivo, rat; details: rats, IV, 2 minutes after dosing
Method: Compound TP-1 (which can be prepared as described in the examples herein) at a dose of 10 mg/kg, or tapentadol, at a dose of 4 mg/kg, were dissolved in saline and injected into the tail vein of 4 male Sprague Dawley rats. These doses represent approximately equimole amounts. After 2 minutes, the rats were anesthetized by carbon dioxide asphyxiation, blood samples were drawn and harvested for plasma by centrifugation at 5,400 rpm at 4° C. for 5 min, and 100 μl plasma was transferred from each sample into a fresh tube containing 2 μl of 50% formic acid. The CSF fluid was collected using a 22×1 inch gauge needle connected to polyurethane catheter type MRE-040 tubing (Braintree Scientific, Inc., Braintree, Mass.). The needle was inserted just below the nuchal crest at the area of the foramen magnum, and clear CSF fluid was collected into the catheter and transferred into a collection tube. The CSF samples were centrifuged at 5,400 rpm at 4° C. for 5 min, and 100 μl CSF fluid was transferred from each sample into a fresh tube. The plasma and CSF samples were immediately placed in dry ice and then stored in a −80° C. freezer until analysis by high performance liquid chromatography/mass spectrometry (HPLC/MS). In order to study Compound TP-1 and tapentadol plasma and CSF penetration over time, additional groups of 4 rats were administered compounds as described above and anesthetized at specified time points. Plasma and CSF were collected and analyzed as described above.
Results in Table 14 are reported, for each group of four rats, as mean concentrations of the indicated compounds in plasma or CSF. Table 14 also provides the plasma-to-CSF (plasma/CSF) partitioning coefficient, i.e., the ratio of concentration in the plasma to concentration in the CSF of the indicated compounds.

human μ-opioid receptor = human μ-opioid receptor (Homo sapiens, UniProt P35372); assay: In vitro human μ-opioid receptor agonist cellular functional assay (cAMP, CHO cells); format: cell-based; set-up: expressed in transfected cells; details: CHO cells expressing human μ-opioid receptor, 37° C., 10 min
Sequence of human μ-opioid receptor (P35372 whole entry): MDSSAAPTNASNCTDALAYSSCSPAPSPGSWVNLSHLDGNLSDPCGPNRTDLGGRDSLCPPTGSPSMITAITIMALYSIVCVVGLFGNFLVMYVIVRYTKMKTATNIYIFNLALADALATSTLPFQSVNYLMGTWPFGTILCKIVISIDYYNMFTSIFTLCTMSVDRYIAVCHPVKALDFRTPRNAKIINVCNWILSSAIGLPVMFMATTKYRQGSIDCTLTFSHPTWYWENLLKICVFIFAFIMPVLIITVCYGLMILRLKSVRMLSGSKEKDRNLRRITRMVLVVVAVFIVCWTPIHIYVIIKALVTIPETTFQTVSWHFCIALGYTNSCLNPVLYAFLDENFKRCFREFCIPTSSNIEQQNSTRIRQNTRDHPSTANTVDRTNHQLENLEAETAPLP
Method: The general procedure follows the protocol described by J.-B. Wang, et al, ibid. More specifically, the assay included as appropriate, Compound TP-1 or tapentadol and recombinant Chinese hamster ovary (CHO) cells expressing the human μ-opioid receptor on their cell surfaces. The control reaction included 1 μM DAMGO. The reaction mixtures were incubated at 37° C. for 10 min, and the reaction product was cyclic AMP (cAMP). The samples were submitted to homogeneous time resolved fluorescence (HTRF®). EC50 values (concentration producing a half-maximal specific response) were determined by non-linear regression fit using Hill plot software.

[4] = Pharmacokinetics of tapentadol release following PO administration of prodrugs or tapentadol to rats; format: in vivo, rat; details: approximately equimole amounts
Method: Saline solutions of Compound TP-1 (which can be prepared as described in the examples herein) were dosed as indicated in Table 1 via oral gavage into 4 jugular vein-cannulated male Sprague Dawley rats that had been fasted for 16-18 hr prior to oral dosing. At specified time points, blood samples were drawn, harvested for plasma via centrifugation at 5,400 rpm at 4° C. for 5 min, and 100 microliters (μl) plasma transferred from each sample into a fresh tube containing 2 μl of 50% formic acid. The tubes were vortexed for 5-10 seconds, immediately placed in dry ice and then stored in a −80° C. freezer until analysis by HPLC/MS.
Saline solutions of Compounds TP-1, TP-3, TP-4, (which can be prepared as described in the examples herein) or tapentadol were dosed in approximately equimole amounts as indicated in Table 6. Dose administration, sampling and analysis procedures were as described in Example 11.
Dosing, sampling and analysis procedures were as described in Example 11.

[5] = Pharmacokinetics of prodrug and tapentadol following IV administration to rats; details: male, Sprague Dawley, in vivo; Table 7; prodrug in rat plasma; IV 2 mg/kg; read-out: Prodrug Cmax ± sd
Method: Compound TP-1 (which can be prepared as described in the examples herein) was dissolved in saline and injected into the tail vein of 4 jugular vein-cannulated male Sprague Dawley rats at a dose of 2 mg/kg. At specified time points, blood samples were drawn, harvested for plasma via centrifugation at 5,400 rpm at 4° C. for 5 min, and 100 μl plasma transferred from each sample into a fresh tube containing 2 μl of 50% formic acid. The tubes were vortexed for 5-10 seconds, immediately placed in dry ice and then stored in a −80° C. freezer until analysis by high performance liquid chromatography/mass spectrometry (HPLC/MS).
Table 2 and FIG. 4 provide Compound TP-1 and tapentadol exposure results for rats administered Compound TP-1 intravenously. Results in Table 2 are reported as maximum plasma concentration (Cmax) of Compound TP-1 and tapentadol (TP), respectively, (average±standard deviation).
Compound TP-3 or Compound TP-4 (which can be prepared as described in the examples herein), or tapentadol were dissolved in saline and injected into the tail vein of four jugular vein-cannulated male Sprague Dawley rats at a dose of 2 mg/kg. Sampling and analysis procedures were as described in Example 12.

trypsin = target: T1, trypsin (Bos taurus, UniProt P00760); assay: In vitro trypsin conversion of prodrug to tapentadol and inhibition thereof by Compound 109; format: biochemical, bovine; details: bovine, trypsin from bovine pancreas, Table 8, 4815 BAEE U trypsin/mL, read-out: Pro-drug trypsin half-life, Average ± sd (converted)
T1 construct: purchased Sigma-Aldrich T8003; host or cells: bovine pancreas
T1 sequence (P00760 24-246): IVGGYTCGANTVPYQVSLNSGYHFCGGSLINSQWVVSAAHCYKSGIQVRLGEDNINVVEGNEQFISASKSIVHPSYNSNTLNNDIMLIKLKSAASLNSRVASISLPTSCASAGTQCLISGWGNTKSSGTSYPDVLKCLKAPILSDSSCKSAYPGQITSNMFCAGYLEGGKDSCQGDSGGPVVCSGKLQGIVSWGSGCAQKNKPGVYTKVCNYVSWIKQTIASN
Method: (§1) Compound TP-1 was incubated with trypsin from bovine pancreas (Catalog No. T8003, Type I, ˜10,000 BAEE units/mg protein, Sigma-Aldrich). Specifically, the reactions included 0.761 nM of Compound TP-1•2HCl, 22.5 mM calcium chloride, 40 to 172 mM Tris pH 8 and 0.25% DMSO with the BAEE units of trypsin indicated in Table 4. The reactions were conducted at 37° C. for 24 hr. Samples were collected at specified time points, transferred into 0.5% formic acid in acetonitrile to stop trypsin activity and stored at less than −70° C. until analysis by LC-MS/MS.
(§2) Compound TP-1 was also incubated in the presence of 2 micromolar (μM) trypsin inhibitor Compound 109. In that case, Compound TP-1 was added 5 min after the other incubation components. Other reaction and sample treatment conditions were as described above.
(§3) Table 4 indicates the results of exposure of Compound TP-1 to trypsin in the absence or presence of trypsin inhibitor. The results are expressed as half-life of prodrug when exposed to trypsin (i.e., Prodrug trypsin half-life) in hours and rate of tapentadol (TP) formation in umol/h/BAEE U trypsin.
(§4) Compound TP-1, Compound TP-3, or Compound TP-4 (which can be prepared as described in the examples herein) were incubated in the absence or presence of Compound 109 as shown in Table 8. Incubations and analysis procedures were as described in Example 14.

[6] = target: T2, trypsin from bovine pancreas (Bos taurus, UniProt P00760); assay: as above; format: biochemical; details: Table 8, 4815 BAEE U trypsin/mL
T2 construct: purchased Sigma-Aldrich T8003; host or cells: bovine pancreas
T2 sequence (P00760 24-246): T1 sequence (P00760 24-246)
Method: as §1, §2, §3, §4

[7] = TP-1 10 mg/kg, tapentadol 4 mg/kg
[8] = pH 8, with Compound 109 (trypsin inhibitor), Compound 109 40 μM

Structure (SMILES)	effect of co-dosed Compound 109 on release of tapentadol from prodrug [1]	IC50 ([2]; [3H] norepinephrine incorporation into rat hypothalamus synaptosomes, 37° C., 20 min) [nM]	activity as a norepinephrine reuptake inhibitor ([2]; rat hypothalamus synaptosomes)	Compound conc. in CSF [3, 7] [ng/mL]	Compound conc. in Plasma [3, 7] [ng/mL]	Plasma/CSF partitioning coefficient ([3]; ratio of concentration in plasma to concentration in CSF)	agonist response in the μ-opioid receptor functional assay (human μ-opioid receptor)	tapentadol plasma concentration profile compared to administration of tapentadol [4]	Cmax [5] [ng/mL]	half-life at 0.761 nM (trypsin; [8]) [h]	half-life at 0.761 nM (trypsin; pH 8, Compound 109 0 μM) [h]	Rate of TP formation, Average ± sd ([6]; Compound 109 0 μM) [umol/h/BAEE U]	Rate of TP formation, Average ± sd ([6]; Compound 109 40 μM) [umol/h/BAEE U]
N=C(N)c1ccc2cc(OC(=O)c3ccc(N=C(N)N)cc3)ccc2c1 [Compound 109, 6-carbamimidoylnaphthalen-2-yl 4-(diaminomethyleneamino)benzoate]	attenuates Compound TP-1's ability to release tapentadol; also recorded: attenuates the abilities of both Compound TP-3 and Compound TP-4 to release tapentadol; also recorded: can attenuate the abilities of both Compound TP-1 and Compound TP-3 to release tapentadol	–	–	–	–	–	–	–	–	–	–	–	–
CC[C@@H](c1cccc(O)c1)[C@@H](C)CN(C)C [Tapentadol, 3-[(1R,2R)-3-(dimethylamino)-1-ethyl-2-methylpropyl]phenol hydrochloride]	–	390	has activity as a norepinephrine reuptake inhibitor	179	1870	10.4	no response up to a concentration of 10 μM	–	–	–	–	–	–
CC[C@@H](c1cccc(OC(=O)N(C)CCNC(=O)[C@H](CCCCN)NC(=O)CC(=O)O)c1)[C@@H](C)CN(C)C [Compound TP-3, N—[(S)-5-Amino-1-(2-{[3-((1R,2R)-3-dimethylamino-1-ethyl-2-methyl-propyl)-phenoxycarbonyl]-methyl-amino}-ethylcarbamoyl)-pentyl]-malonamic acid]	–	–	–	–	–	–	–	suppressed Cmax and delayed Tmax	1460 ± 99	12.2 ± 0.33	0.271 ± 0.0023	0.0258 ± 0.0024	0.0048 ± 0.0000
CC[C@@H](c1cccc(OC(=O)N(C)CC(C)(C)CNC(=O)[C@H](CCCNC(=N)N)NC(=O)CC(=O)O)c1)[C@@H](C)CN(C)C [Compound TP-4, N—[(S)-1-(3-{[3-((1R,2R)-3-Dimethylamino-1-ethyl-2-methyl-propyl)-phenoxycarbonyl]-methyl-amino}-2,2-dimethyl-propylcarbamoyl)-4-guanidino-butyl]-malonamic acid]	–	–	–	–	–	–	–	suppressed Cmax and delayed Tmax	988 ± 89	1.76 ± 0.22	0.0823 ± 0.0028	0.0753 ± 0.0007	0.028 ± 0.0004
